From patent publication US9775856B2, “C-glycosylpolyphenol antidiabetic agents, effect on glucose tolerance and interaction with beta-amyloid. therapeutic applications of the synthesized agent(s) and of Genista tenera ethyl acetate extracts containing some of those agents” (FACULDADE DE CIENCIAS DA UNIVERSIDADE DE LISBOA, priority 2012, dated 2017)
≈ marks a conversion by molar mass, not a printed value. Values belong to the molecule of their own block, whether it stands above or below them.

Legend:
Solubility in PBS = format: physicochemical; details: pure compound in PBS
[1] = 1H-NMR 2D DOSY diffusion coefficient; format: physicochemical; details: DOSY spectrum acquired on the G. tenera extract at 25° C.
Protocol: NMR experiments were recorded on a Varian 400-MHz Mercury instrument. The basic VARIAN sequences were employed for 2D-TOCSY, 2D-NOESY, ^13C-HSQC, DOSY and STD experiments. […] A ^1H spectrum was acquired with a recycle delay of 60 s to achieve the complete relaxation of all the resonances at each scan.

Aβ1-42 oligomers = molecular target: T1, Aβ1-42 oligomers (Homo sapiens, UniProt P05067); experiment: NMR binding studies (STD-NMR, trNOESY) with beta-amyloid oligomers; details: Aβ1-42 80 uM, deuterated PBS pH 7.5
T1 construct: lyophilized Aβ1-42 was dissolved in 10 mM NaOD in D2O at a concentration of 160 μM
Protocol: The selection was made through sample characterization by NMR spectroscopy, as previously described Immediately before use, lyophilized Aβ1-42 was dissolved in 10 mM NaOD in D2O at a concentration of 160 μM, then diluted 1:1 with 10 mM phosphate buffer saline, pH 7.4 containing 100 mM NaCl (PBS) and ethyl acetate extract of G. tenera or one of the tested compounds. […] The pH of each sample was verified with a Microelectrode (Mettler Toledo) for 5 mm NMR tubes and adjusted with NaOD and/or DCl. All pH values were corrected for isotope effect.
NMR experiments were recorded on a Varian 400-MHz Mercury instrument. The basic VARIAN sequences were employed for 2D-TOCSY, 2D-NOESY, ^13C-HSQC, DOSY and STD experiments. For STD, a train of Gaussian-shaped pulses each of 50 ms was employed to saturate selectively the protein envelope; the total saturation time of the protein envelope was adjusted by the number of shaped pulses and was varied between 3 s and 0.3 s. A ^1H spectrum was acquired with a recycle delay of 60 s to achieve the complete relaxation of all the resonances at each scan.

[2] = test system: STZ induced diabetic Wistar rats; details: previous research work; cited from earlier work
[3] = test system: mouse HII4E hepatoma cells; experiment: In vitro acute toxicity, MTT cell viability assay; format: cell-based; details: 24 h exposure
Protocol: Acute cytotoxicity measurements were performed by the MTT method. The 3-(4,5-dimethylthiazol-2-yl)-2,5-diphenyltetrazolium bromide (MTT) assay was used to quantify metabolically viable cells in all samples. Adherent cells (mouse HII4E hepatoma cells) were seeded onto 96-well plates, allowed to attach for 24 h and exposed to the test compound for the following 24 h. Positive control (hydrogen peroxide), negative control (DMSO) and chloramphenicol were also included. At 48 h of culture, MTT was added to the cells at a final concentration of 0.5 mg/mL, followed by an incubation period of 3 h to allow the formazan crystals to form. After incubation, medium was removed, cells were washed twice to remove traces of medium and un-metabolized MTT, and DMSO (100 μL) was added to each well. Solubilisation of formazan crystals was performed by agitation in a 96-well plate shaker for 20 min at room temperature. Absorbance of each well was quantified at 550 nm, using 620 nm as reference wavelength on a scanning multiwell spectrophotometer (automated microplate reader).

T1 sequence (P05067 672-713): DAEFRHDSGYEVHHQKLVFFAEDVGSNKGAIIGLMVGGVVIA

Compound: O=c1c(-c2ccc(O)cc2)coc2cc(O[C@@H]3O[C@H](CO)[C@@H](O)[C@H](O)[C@H]3O)cc(O)c12 [genistein-7-O-glucoside, Genistein 7-O-β-D-glucoside]
solubility in PBS (Solubility in PBS): insolubility
diffusion coefficient [1]: 2.65±0.035 10^−10 m^2/s

binding to Aβ1-42 oligomers (STD-NMR, trNOESY), words (Aβ1-42 oligomers): efficient Aβ oligomer ligand
Compound: O=c1c(-c2ccc(O)cc2)coc2cc(O)cc(O)c12 [genistein]
blood glucose levels [2]: significantly lowered blood glucose levels

Compound: C[S+](C)[O-] [DMSO]
IC50 in vitro acute toxicity [3]: 199 µg/mL (≈ 2550 µM)

Compound: OO [Compound H2O2, hydrogen peroxide]
IC50 in vitro acute toxicity [3]: 2 µg/mL (≈ 58.8 µM)

Compound: COc1cc(-c2cc(=O)c3c(O)cc(O)cc3o2)ccc1O [chrysoeriol]
blood glucose levels [2]: significantly lowered blood glucose levels

Compound: O=c1cc(-c2ccc(O)cc2)oc2cc(O)cc(O)c12 [apigenin]
blood glucose levels [2]: significantly lowered blood glucose levels

Compound: O=C(N[C@H](CO)[C@H](O)c1ccc([N+](=O)[O-])cc1)C(Cl)Cl [Chloramphenicol, chloramphenicol]
IC50 [3]: 143 µg/mL (≈ 443 µM)
